doi:10.1101/2022.04.02.486831v1 (biorxiv, 2022)

Target: T1, PsmtLPD1 (mtLPD1; PsL) (Lathyrus oleraceus, UniProt P31023)
T1 sequence (P31023 32-501): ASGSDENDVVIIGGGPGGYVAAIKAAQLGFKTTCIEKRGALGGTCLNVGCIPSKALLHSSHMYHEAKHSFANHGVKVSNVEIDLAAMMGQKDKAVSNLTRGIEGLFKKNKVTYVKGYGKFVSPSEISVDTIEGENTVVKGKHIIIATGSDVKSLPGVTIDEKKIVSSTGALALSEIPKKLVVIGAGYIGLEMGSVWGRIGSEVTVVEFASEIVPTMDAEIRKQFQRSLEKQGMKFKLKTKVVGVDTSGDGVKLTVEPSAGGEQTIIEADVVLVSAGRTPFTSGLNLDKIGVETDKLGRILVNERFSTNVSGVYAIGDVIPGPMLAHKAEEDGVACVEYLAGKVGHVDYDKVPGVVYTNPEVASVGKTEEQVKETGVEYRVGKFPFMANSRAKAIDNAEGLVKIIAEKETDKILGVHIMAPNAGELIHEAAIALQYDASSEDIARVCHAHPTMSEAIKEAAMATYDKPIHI
Assay: spectrophotometric at […] nm, forward direction
Type: biochemical

- Ki: ~66.1 µM
SMILES: NC(=O)C1=CN([C@@H]2O[C@H](COP(=O)(O)OP(=O)(O)OC[C@H]3O[C@@H](n4cnc5c(N)ncnc54)[C@H](O)[C@@H]3O)[C@@H](O)[C@H]2O)C=CC1 [NADH]
